Test results as given in patent US20060189590A1, “Alkaline salts of proton pump inhibitors” (priority 2003, published 2006).

Tests used:
Format in all cases: physicochemical
[1] = Dissolution compared with racemic pantoprazole magnesium dihydrate
[2] = Storage stability at 70° C. for one week (discolouration, decomposition); conditions: for stability, discolouration and decomposition on storage: 70° C., one week, identical conditions for both salts
[3] = Storage stability under atmospheric conditions at 60-70° C. (by-products, HPLC purity)
From the text: The compounds according to the invention and their hydrates can be used for the treatment and prevention of all disorders, which can be treated or prevented by using PPI. In particular, the compounds according to the invention and their hydrates can be used for treating gastric disorders. In this context particular mention should be made of the relatively high stability of compounds according to the invention and their hydrates. […] This relatively high storage stability makes the compounds according to the invention and their hydrates particularly suitable for use in medicaments.

Structure (SMILES) | dissolution [1] | stability, discolouration and decomposition on storage [2] | sum of by-products on storage ([3]; storage under atmospheric conditions, 60-70° C.) | stability properties / stable storage form (general statement) ([2]; compared to the sodium salt of (−)-pantoprazole) | purity (according to HPLC) before storage ([3]; start value) | purity (according to HPLC) after storage ([3]; storage under atmospheric conditions at 60-70° C.)
COc1ccnc(C[S+]([O-])c2nc3cc(OC(F)F)ccc3[n-]2)c1OC.O.[Mg+2].[OH-] (stereo not drawn) [Example 2, Magnesium (−)-{[5-(difluoromethoxy)]-2-[(3,4-dimethoxy-2-pyridinyl)methylsulphinyl]-1H-benzimidazolide}hydroxy monohydrate] | faster dissolution than the racemic pantoprazole magnesium dihydrate | completely stable for one week and shows virtually no discolouration or decomposition | remains virtually constant |  |  | 
COc1ccnc(C[S+]([O-])c2nc3cc(OC(F)F)ccc3[n-]2)c1OC.[Na+] (single isomer, unassigned; (-)) [(−)-pantoprazole sodium] |  | changes to brown, with formation of considerable amounts of decomposition products |  | does not form a stable storage form | 99.5% | 96-97%
